One block for each compound: values may come before it.
How the values were obtained:
[1] = In vitro dissolution test of Drug 2 compositions in PBS pH 6.5 (microcentrifuge method, HPLC); type: physicochemical; parameters: AUC90: tested at 2000 µg/mL
Experimental: (§1) For this test, 14.4 mg of the dispersion was added to a microcentrifuge tube for a total Drug 2 concentration of approximately 2000 μg/mL if all of the drug were to dissolve completely. The tube was placed in a 37° C. temperature-controlled chamber, and 1.8 mL PBS as pH 6.5 and 290 mOsm/kg was added. The samples were quickly mixed using a vortex mixer for about 60 seconds. The samples were centrifuged at 13,000 G at 37° C. for 1 minute. The resulting supernatant solution was then sampled and diluted 1:6 (by volume) with methanol and then analyzed by high-performance liquid chromatography (HPLC). The contents of the tubes were mixed on the vortex mixer and allowed to stand undisturbed at 37° C. until the next sample was taken. Samples were collected at 4, 10, 20, 40, 90, and 1200 minutes.
For comparison, a Control C4 consisting of 3.6 mg of crystalline Drug 2 was added to PBS for a total concentration of 2000 μg/mL.
For this test, 14.4 mg of the dispersion was added to a microcentrifuge tube for a total Drug 2 concentration of approximately 2000 μg/mL if all of the drug were to dissolve completely. The dissolution test was performed as described in Example 9. Control C4 (consisting of 3.6 mg of crystalline Drug 2) is shown again for comparison.

[2] = In vitro dissolution test of Drug 3 compositions in PBS with 0.5 wt % NaTC/POPC; type: physicochemical; conditions: for Drug 3 Concentration: approx. 200 μg/mL if all dissolved
Experimental: as §1
For these tests, 1.44 mg of each dispersion was added to a microcentrifuge tube containing PBS with 0.5 wt % sodium taurocholic acid and 1-palmitoyl-2-oleyl-sn-glycero-3-phosphocholine (“NaTC/POPC,” with a 4/1 weight ratio), for a total Drug 3 concentration of approximately 200 μg/mL if all of the drug were to dissolve completely. For Controls C5, C6, and C7 (with Drug 3B), 1.57 mg of each dispersion was added to PBS containing 0.5 wt % NaTC/POPC to yield approximately 200 μg/mL of active Drug 3. Control C8 consisted of 0.36 mg of crystalline Drug 3A. The dissolution tests were performed as described in Example 9.

AUC90 ([1]; Drug 2, PBS pH 6.5, 37° C.): 10,300 min * μg/mL
Cmax90 ([1]; Drug 2, PBS pH 6.5, 37° C.): 131 µg/mL
AUC ([1]; Table 4, time 0 min, PBS pH 6.5, 37° C.): 0 µg·h/mL
AUC ([1]; Table 4, time 4 min, PBS pH 6.5, 37° C.): 5 µg·h/mL
AUC ([1]; Table 4, time 10 min, PBS pH 6.5, 37° C.): 16.7 µg·h/mL
AUC ([1]; Table 4, time 20 min, PBS pH 6.5, 37° C.): 36.7 µg·h/mL
AUC ([1]; Table 4, time 40 min, PBS pH 6.5, 37° C.): 75 µg·h/mL
AUC ([1]; Table 4, time 90 min, PBS pH 6.5, 37° C.): 172 µg·h/mL
AUC ([1]; Table 4, time 1200 min, PBS pH 6.5, 37° C.): 2000 µg·h/mL
AUC ([1]; Table 5, AUC90 according to the text, PBS pH 6.5): 172 µg·h/mL
Drug 2 Concentration ([1]; Table 5, Cmax90 according to the text, PBS pH 6.5): 131 µg/mL
AUC ([1]; time 0 min, PBS pH 6.5, 37° C.): 0 µg·h/mL
Drug 2 Concentration ([1]; time 0 min, PBS pH 6.5, 37° C., approx. 2000 μg/mL if all dissolved): 0 µg/mL
AUC ([1]; time 4 min, PBS pH 6.5, 37° C.): 5 µg·h/mL
Drug 2 Concentration ([1]; time 4 min, PBS pH 6.5, 37° C., approx. 2000 μg/mL if all dissolved): 131 µg/mL
AUC ([1]; time 10 min, PBS pH 6.5, 37° C.): 1,000 min * μg/mL
Drug 2 Concentration ([1]; time 10 min, PBS pH 6.5, 37° C., approx. 2000 μg/mL if all dissolved): 114 µg/mL
AUC ([1]; time 20 min, PBS pH 6.5, 37° C.): 2,200 min * μg/mL
Drug 2 Concentration ([1]; time 20 min, PBS pH 6.5, 37° C., approx. 2000 μg/mL if all dissolved): 124 µg/mL
AUC ([1]; time 40 min, PBS pH 6.5, 37° C.): 4,500 min * μg/mL
Drug 2 Concentration ([1]; time 40 min, PBS pH 6.5, 37° C., approx. 2000 μg/mL if all dissolved): 107 µg/mL
AUC ([1]; time 90 min, PBS pH 6.5, 37° C.): 10,300 min * μg/mL
Drug 2 Concentration ([1]; time 90 min, PBS pH 6.5, 37° C., approx. 2000 μg/mL if all dissolved): 126 µg/mL
AUC ([1]; time 1200 min, PBS pH 6.5, 37° C.): 120,200 min * μg/mL
Drug 2 Concentration ([1]; time 1200 min, PBS pH 6.5, 37° C., approx. 2000 μg/mL if all dissolved): 72 µg/mL
Structure (SMILES): O=C(N[C@@H](Cc1ccccc1)[C@@H](O)C(=O)N1C[C@@H](O)[C@@H](O)C1)c1cc2cc(Cl)ccc2[nH]1 [Example C4, 5-chloro-1H-indole-2-carboxylic acid[(1S)-benzyl-3-((3R,4S)-dihydroxypyrrolidin-1-yl)-(2R)-hydroxy-3-oxypropyl]amide]

Cmax90 ([2]; Drug 3): 2 µg/mL
AUC ([2]; Drug 3, time 0 min): 0 µg·min/mL
AUC ([2]; Drug 3, time 4 min): 0 µg·min/mL
AUC ([2]; Drug 3, time 10 min): 0 µg·min/mL
AUC ([2]; Drug 3, time 20 min): 0 µg·min/mL
AUC ([2]; Drug 3, time 40 min): 0 µg·min/mL
AUC ([2]; Drug 3, time 90 min): 100 µg·min/mL
AUC ([2]; Drug 3, time 1200 min): 1,800 min * μg/mL
AUC ([2]; Table 9, AUC90 according to the text, Drug 3): 100 µg·min/mL
Drug 3 Concentration ([2]; time 0 min): 0 µg/mL
Drug 3 Concentration ([2]; time 4 min): 1 µg/mL
Drug 3 Concentration ([2]; time 10 min): 1 µg/mL
Drug 3 Concentration ([2]; time 20 min): 1 µg/mL
Drug 3 Concentration ([2]; time 40 min): 2 µg/mL
Drug 3 Concentration ([2]; time 90 min): 1 µg/mL
Drug 3 Concentration ([2]; time 1200 min): 2 µg/mL
Structure (SMILES): O=C1Cc2cc(CCN3CCN(c4nsc5ccccc45)CC3)c(Cl)cc2N1 [Example C8, ziprazidone]

From patent US8147872B2, “Pharmaceutical compositions of drugs and neutralized acidic polymers” (Bend Reseach, Inc., priority 2001, dated 2012)
